Reference: article PMC12392461, “Beyond Estrogenicity: A Comparative Assessment of Bisphenol A and Its Alternatives in In Vitro Assays Questions Safety of Replacements” (Environmental Science & Technology, 2025)
Where two headings read alike, the source gives them in different places.

Columns and labels:
[1] = tested on: ERα-UAS-bla GripTite cells; settings: for TKcytotoxicity: TKcytotoxicity-Ratio
Experimental: Cell culture conditions and bioassay protocols including response detection are provided in Text S2.1–2.4 and Table S3. − Cell viability was determined from cell confluency using an IncuCyte S3 Live-Cell Analysis System (Sartorius AG, Essen, Germany) before and after exposure, except for SH-SY5Y cells (live–dead staining with Nuclear Green LcS1 and propidium iodide, Abcam, UK). For metabolic activation experiments, cell viability was assessed using the ToxBLAzer DualScreen Kit (Thermo Fisher Scientific) to capture the remaining toxicity in ERα-UAS-bla GripTite after treatment with the aCYP catalyst (details in Text S2.4). […]
The TK-Ratio method was used to evaluate the impact of abiotic CYP oxidation on the potency of tested compounds. […]
For experiments with the preceding aCYP activation, ERα cell viability was additionally calculated from the readout of the ToxBLAzer reagent. The ToxBLAzer assay was conducted following the manufacturer's instructions (Thermo Fisher, Waltham, MA, U.S.).13 Fluorescence intensity was recorded at the start of the assay ( Fwavelength(0h)) and after a 2-hour incubation at […]
eq. S11 for normalization.
Cell viability = F665nm(2h, sample)-F665nm(0h, average cell-free) (S11) F665nm(2h, average unexposed)-F665nm(0h, average cell-free) […]
the specific endpoint to avoid artifacts from cytotoxicity burst. 15
S2.5: Concentration-response curves (CRCs)
To avoid bias from cytotoxicity burst at higher concentrations, all concentrations exceeding the IC10 for cytotoxicity were excluded in the CRC modeling of effects but otherwise cytotoxicity and effects were fitted with the same model equations (response stands for cytotoxicity or effect). For ERα, AhR, ARE and PPARγ preferably a linear model was fitted to the linear portion of CRC up to maximum 30% effect (eq. S12),16 but in some cases it was necessary to choose a sigmoidal log-concentration-response model, specifically a log-logistic model (eq. S13), to derive effect concentrations and cytotoxicity. […]
This was done using the
AutomatedBioassayScreening19 published by Braun et al.,20 which also included an algorithm to choose the best model between eq. S12 and eq. S13.
Response (%) = slope × C (S12) […]
logEC =logEC − 1 ∙log (max−min − 100%) (S14)

[2] = molecular target: T1, Aryl hydrocarbon receptor (Rattus norvegicus, UniProt P41738); settings: for EC10, linear / logEC10 / EC10, linear transformed: Bioassay AhR, dosing range all; for EC10, linear: linear model fit; for logEC10: log-logistic model fit; for SR-ScoreAhR: SR-Score, sigma k=1, x=5; for Specificity ratio (SRbaseline) SRAhR: against baseline cytotoxicity; for EC10, AhR: effect; for log(1/EC10) AhR: input of the ToxPi score, values up to 1.00
T1 sequence (P41738 10-853): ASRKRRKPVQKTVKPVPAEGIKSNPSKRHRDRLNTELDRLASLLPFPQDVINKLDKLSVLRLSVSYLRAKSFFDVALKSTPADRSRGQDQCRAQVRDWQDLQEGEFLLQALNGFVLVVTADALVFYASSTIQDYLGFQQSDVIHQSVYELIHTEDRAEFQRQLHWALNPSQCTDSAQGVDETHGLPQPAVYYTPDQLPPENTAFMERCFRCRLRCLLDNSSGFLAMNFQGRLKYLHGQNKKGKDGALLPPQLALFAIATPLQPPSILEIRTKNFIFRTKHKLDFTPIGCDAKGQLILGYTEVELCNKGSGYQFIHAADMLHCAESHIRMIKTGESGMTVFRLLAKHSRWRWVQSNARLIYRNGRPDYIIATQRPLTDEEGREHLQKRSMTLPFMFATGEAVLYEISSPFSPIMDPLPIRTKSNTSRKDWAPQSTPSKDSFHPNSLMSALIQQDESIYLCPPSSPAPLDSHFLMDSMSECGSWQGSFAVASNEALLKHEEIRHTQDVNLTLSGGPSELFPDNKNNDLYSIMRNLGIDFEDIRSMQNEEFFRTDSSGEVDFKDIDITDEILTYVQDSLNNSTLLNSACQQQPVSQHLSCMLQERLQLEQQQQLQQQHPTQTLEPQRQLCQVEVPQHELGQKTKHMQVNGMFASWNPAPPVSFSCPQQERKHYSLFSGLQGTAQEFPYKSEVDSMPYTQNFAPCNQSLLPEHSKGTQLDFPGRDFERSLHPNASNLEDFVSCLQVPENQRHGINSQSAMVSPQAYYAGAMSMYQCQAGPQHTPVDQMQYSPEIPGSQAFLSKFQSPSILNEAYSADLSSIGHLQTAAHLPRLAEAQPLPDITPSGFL
Description: All bioassay media components and the ERα-UAS-bla GripTite and PPARγ-UAS-bla cells were obtained from Thermo Fisher Scientific (Waltham, MA, USA). AREc32 reporter gene cells based on MCF7 were provided by C. Roland Wolf (Cancer Research UK); AhR CALUX cells (H4L7.5c2 derived from H4IIe) were provided by Michael Denison (UC Davis, USA); and SH-SY5Y cells were purchased from Sigma-Aldrich.
Cell culture conditions and bioassay protocols including response detection are provided in Text S2.1–2.4 and Table S3. − Cell viability was determined from cell confluency using an IncuCyte S3 Live-Cell Analysis System (Sartorius AG, Essen, Germany) before and after exposure, except for SH-SY5Y cells (live–dead staining with Nuclear Green LcS1 and propidium iodide, Abcam, UK). For metabolic activation experiments, cell viability was assessed using the ToxBLAzer DualScreen Kit (Thermo Fisher Scientific) to capture the remaining toxicity in ERα-UAS-bla GripTite after treatment with the aCYP catalyst (details in Text S2.4).
For ARE, the concentration that triggered an induction ratio of 1.5 (ECIR1.5) was used as the benchmark value, as detailed in Text S2.5. IC10 values also served as a threshold for data analysis in all assays; only concentrations below IC10 were considered when deriving EC10 or ECIR1.5. […]
S2: Cell culture and bioassays
S2.1: Cell Culturing Conditions
All suppliers and sources are given in detail in SI-Excel S3. The bioassay media for the different assays were prepared as follows: Assay medium for ER alpha-UAS-bla GripTite (ERα) and PPAR gamma-UAS-bla 293H (PPARγ) was prepared with 98% Opti-MEM, supplemented with 2% charcoal-stripped FBS, and 100 U/mL penicillin-streptomycin. MitoOxTox and AhR assay medium was comprised of 90% DMEM with GlutaMAX, supplemented with 10% FBS, and 100 U/mL penicillin-streptomycin. Neurotoxicity assay medium consisted of the neurobasal […]
(1 picture or pasted object on this page, not shown here) […]
medium, supplemented with 2% B-27 Supplement and 2 mM GlutaMAX Supplement. SH - SY5Y cells were differentiated with 10 µM all-trans retinoic acid prior to the assay.
S2.2: Cell Seeding and Incubation. For all bioassays, cell suspensions in the respective assay medium were dispensed into each well of 384-well plates using a MultiFlo Dispenser (Biotek, (now Agilent), Winooski, VT, U.S.). After seeding, the plates were incubated at 37° C and 5% CO₂ for […]. The final cell densities and plate types were as follows: Black poly-D-lysine coated 384-well plates (Product No. 354663, Corning Inc., NYC, U.S.) were used for PPARγ:
6500 cells/well, ERα: 5000 cells/well. White 384-well plates with a clear bottom (Product No.
781098, Greiner, Kremsmünster, Austria) were utilized for the MitoOxTox assay: 2650

Compound | IC10, before oxidation ([1]; Table S10, cytotoxicity from ToxBLazer data, without simultaneous cparent measurement) | TKcytotoxicity ([1]; Table S11) | EC10, linear [2] | logEC10 [2] | TKcytotoxicity (TK-Ratio for cytotoxicity) ([1]; IC10 before/after aCYP oxidation) | TKcytotoxicity ([1]; Table S10) | EC10, AhR (M) [2] | EC10, linear transformed [2] | SR-ScoreAhR [2] | Specificity ratio (SRbaseline) SRAhR [2] | Specificity ratio (SRcytotoxicity) SRAhR ([2]; against experimental cytotoxicity) | EC10, AhR [2] [µM] | log(1/EC10) AhR [2]
Cc1ccc(S(=O)(=O)NC(=O)Nc2ccc(Cc3ccc(NC(=O)NS(=O)(=O)c4ccc(C)cc4)cc3)cc2)cc1 [BTUM, 4,4'-Bis(p-tolylsulfonylureido)diphenylmethane] | no cytotoxicity | 2.25 | no effect | no effect | – | – | – | – | – | – | – | – | –
COC(=O)C(c1ccc(O)cc1)c1ccc(O)cc1 [Bz, Methyl bis(4-hydroxyphenyl)acetate] | – | – | 6.20E-05 | -3.94 | 2.48 ± 0.69 | 2.48 | 6.20 × 10^–5 M | 5.80E-05 | 0.0375 | 5.57 | 1.75 | 62 | –
O=C(OCc1ccccc1)c1ccc(O)cc1 [BzPB, Benzyl 4-hydroxybenzoate] | – | – | no effect | no effect | – | 1.10 | – | 1.73E-04 | – | – | – | – | 0.80
CC(C)Oc1ccc(S(=O)(=O)c2ccc(O)cc2)cc1 [D8, 4-((4-Isopropoxyphenyl)sulfonyl)phenol] | – | – | no effect | no effect | – | 0.94 | – | – | – | – | – | – | 0.75
Cc1ccc(S(=O)(=O)NC(=O)Nc2cccc(OS(=O)(=O)c3ccc(C)cc3)c2)cc1 [Pergafast, N-(p-toluenesulfonyl)-N'-(3-(p-toluenesulfonyloxy)phenyl)urea] | – | – | 2.29E-05 | -4.61 | – | 0.45 | 2.29 × 10^–5 M | 2.45E-05 | 0.73 | 6.02 | – | 22.9 | –
CC(C)(c1cc(Cl)c(O)c(Cl)c1)c1cc(Cl)c(O)c(Cl)c1 [TCBPA, 2,2',6,6'-Tetrachlorobisphenol A] | – | 0.40 | 1.69E-04 | no effect | – | 0.85 | – | 7.24E-05 | – | – | – | – | 0.84
Cc1cc(Cc2cc(C)c(O)c(C)c2)cc(C)c1O [TMBPF, Bis(3,5-dimethyl-4-hydroxyphenyl)methane] | – | – | no effect | no effect | – | 0.35 | – | 1.03E-04 | – | – | – | – | –
CC1(C)[C@H](O)C(C)(C)[C@H]1O [t-TMCD, trans-2,2,4,4-Tetramethyl-1,3-cyclobutanediol] | – | – | – | – | – | 1.74 | – | – | – | – | – | – | 0.30
